Source: ChEMBL document CHEMBL1131031, “Indolequinone antitumor agents: reductive activation and elimination from (5-methoxy-1-methyl-4,7-dioxoindol-3-yl)methyl derivatives and hypoxia-selective cytotoxicity in vitro” (J Med Chem, 1998)

Legend:
[1] = In vitro cytotoxicity against […] V79-379A cells determined by MTT assay in the presence of air; type: functional, cell-based; settings: Cricetulus griseus
[2] = In vitro cytotoxicity against hypoxic V79-379A cells determined by MTT assay in the presence of nitrogen; type: functional, cell-based; settings: Cricetulus griseus

Compound `COC1=CC(=O)c2c(c(COC(=O)c3ccccc3)c(C3CC3)n2C)C1=O` has an IC50 [1] of 198 µM and an IC50 [2] of 1 µM.

`COC1=CC(=O)c2c(c(COc3cccc(NC(C)=O)c3)c(C)n2C)C1=O` showed an IC50 [1] of 3.7 µM and an IC50 [2] of 0.04 µM.

In the case of `COC1=CC(=O)c2c(c(COc3ccccc3)c(C)n2C)C1=O`, the IC50 [1] is reported as 12 µM and the IC50 [2] is reported as 0.7 µM.

`COC1=CC(=O)c2c(c(COC(=O)c3ccccc3)cn2C)C1=O` showed an IC50 [1] of 1.4 µM and an IC50 [2] of 0.04 µM.

`CCOC(=S)SCc1c2c(n(C)c1C)C(=O)C=C(OC)C2=O` gave an IC50 [1] of 67 µM and an IC50 [2] of 3 µM.

`COC1=CC(=O)c2c(c(COC(C)=O)c(C)n2C)C1=O` gave an IC50 [1] of 27 µM and an IC50 [2] of 2.5 µM.

Compound `COC1=CC(=O)c2c(c(COC(=O)c3ccc(F)cc3)cn2C)C1=O` has an IC50 [1] of 0.7 µM and an IC50 [2] of 0.05 µM.

In the case of `COC1=CC(=O)c2c(c(COC(N)=O)cn2C)C1=O`, the IC50 [1] is reported as 3 µM and the IC50 [2] is reported as 0.04 µM.

`COC1=CC(=O)c2c(c(CO)c(C)n2C)C1=O` showed an IC50 [1] of 1080 µM and an IC50 [2] of 285 µM.

With `COC1=CC(=O)c2c(c(Cc3ccc(O)c(F)c3)c(C)n2C)C1=O` the IC50 [1] was 470 µM and the IC50 [2] was 280 µM.

For `COC1=CC(=O)c2c(c(CCl)cn2C)C1=O`, the IC50 [1] was 304 µM and the IC50 [2] was 33 µM.

`COC1=CC(=O)c2c(c(CO)cn2C)C1=O` showed an IC50 [1] of 220 µM and an IC50 [2] of 240 µM.

In the case of `COC1=CC(=O)c2c(c(CO)c(C3CC3)n2C)C1=O`, the IC50 [1] is reported as 540 µM and the IC50 [2] is reported as 820 µM.

For `COC1=CC(=O)c2c(c(COC(=O)c3ccc(F)cc3)c(C)n2C)C1=O`, the IC50 [1] was 27 µM and the IC50 [2] was 0.3 µM.

In the case of `COC1=CC(=O)c2c(c(COC(=O)c3ccccc3F)c(C)n2C)C1=O`, the IC50 [1] is reported as 164 µM and the IC50 [2] is reported as 2 µM.

In the case of `COC1=CC(=O)c2c(c(COC(=O)Cc3ccc(-c4ccccc4)cc3)c(C)n2C)C1=O`, the IC50 [1] is reported as 14.1 µM and the IC50 [2] is reported as 0.66 µM.

Compound `COC1=CC(=O)c2c(c(COC(=O)c3ccccc3F)cn2C)C1=O` has an IC50 [1] of 0.5 µM and an IC50 [2] of 0.04 µM.

`COC1=CC(=O)c2c(c(COC(N)=O)c(C)n2C)C1=O` gave an IC50 [1] of 25 µM and an IC50 [2] of 0.3 µM.

In the case of `COC1=CC(=O)c2c(c(COc3ccc(F)cc3)c(C)n2C)C1=O`, the IC50 [1] is reported as 31 µM and the IC50 [2] is reported as 0.85 µM.

Work on `COC1=CC(=O)c2c(c(COc3c(Cl)cc(Cl)cc3Cl)cn2C)C1=O` yielded an IC50 [1] of 0.7 µM and an IC50 [2] of 0.08 µM.

Work on `COC1=CC(=O)c2c(c(Cc3cc(F)ccc3O)c(C)n2C)C1=O` yielded an IC50 [1] of 200 µM and an IC50 [2] of 110 µM.

Work on `COC1=CC(=O)c2c(c(COC(=O)c3ccccc3)c(C)n2C)C1=O` yielded an IC50 [1] of 16 µM and an IC50 [2] of 0.2 µM.

`COC1=CC(=O)c2c(c(COCc3ccccc3)c(C)n2C)C1=O` showed an IC50 [1] of 225 µM and an IC50 [2] of 410 µM.
